This note sets out measurements from US20200069686A1, “N-SUBSTITUTED INDOLE DERIVATIVES” (Idorsia Pharmaceuticals Ltd, priority 2017, published 2020).

Type in all cases: cell-based
The target of one assay is T1, PTGER2 (EP2) (Homo sapiens, UniProt P43116).
T1 construct: host or cells: HEK 293 (PathHunter PTGER2 b-arrestin cell line)
Briefly: hEP2 b-arrestin assay (PathHunter HEK 293 PTGER2 b-arrestin cells). Particulars: PGE2 5 μM (EC80) as agonist, antagonistic activity, read-out: hEP2 beta-arrestin IC50. Here is the method:
(§1) The antagonistic activities of the compounds of formula (I) on the EP2 and EP4 receptors are determined in accordance with the following experimental methods.
(§2) The assay is using the PathHunter™ HEK 293 PTGER2 and PTGER4 b-arrestin cell lines from DiscoverX. The system is based on the Enzyme Fragment Complementation Technology. Two complementing fragments of the b-galactosidase enzyme are expressed within stably transfected cells. The larger portion of b-gal, termed EA for Enzyme Acceptor, is fused to the C-terminus of b-arrestin 2. The smaller fragment, termed ProLink™ tag, is fused to PTGER2 (EP2) or PTRGER4 (EP4) at the C-terminus. Upon activation, b-arrestin is recruited which forces the interaction of ProLink and EA, allowing complementation of the two fragments of b-gal and the formation of a functional enzyme which is capable of hydrolysing the substrate and generating a chemiluminescent signal.
The HEK 293 PTGER2 b-arrestin cells (DiscoverX 93-021-4C1) are detached from culture dishes with a cell dissociation buffer (Invitrogen, 13151-014), and collected in growing medium (GM: DMEM+Glutamax-I (Invitrogen 32430)/10% FCS, 1% Penicilin/streptomycin). 5000 cells per well of a 384 well plate (white with white bottom Greiner 781080) are seeded in 20 ul per well of GM. Plate is incubated at 37° C., 5% CO2 for 24 hours.
(§3) Stock solutions of test compounds are made at a concentration of 10 mM in DMSO, and serially diluted in DMSO to concentrations required for inhibition dose response curves (tested concentration range 10 μM-2 nM or 1 μM-0.2 nM).
PGE2 (Cayman 14010, stock solution: 10 mM in DMSO) is used as agonist at 5 μM final concentration, corresponding to EC80.
Five microliters of diluted compounds are transferred into the assay plate. Plate is pre-incubated 15 minutes at 37° C. Then five microliters of PGE2 (final conc. 5 μM) are transferred into the assay plate. Plate is incubated 120 minutes at 37° C.
PathHunter Glo Detection Kit components are thawed and mix according to manufacturers instructions: 1 part Galacton Star Substrate with 5 parts Emerald II™ Solution, and 19 parts of PathHunter Cell Assay Buffer, respectively. Twelve μL of reagent are transferred to the assay plate and incubate for 1 hour at room temperature in the dark. Luminescence counts are read on a BMG Fluostar Optima reader according to manufacturers instructions.
(§4) For each compound concentration calculate of the percentage of activity compared to DMSO control value as average ±STDEV. (each concentration is measured in duplicate)
(§5) IC50 values and curves are generated with XLfit software (IDBS) using Dose-Response One Site model 203. When compounds were measured multiple times, mean values are given.

The target of another assay is T2, EP2 (Homo sapiens, UniProt P43116).
T2 construct: SF295 glioblastoma cells express high endogenous EP2 and no EP4; endogenous in cells; host or cells: SF295 glioblastoma cells (NCI No. 0503170)
Kind of assay: hEP2 cAMP assay (SF295 glioblastoma cells, HTRF cAMP). Conditions: PGE2 75 nM (EC80) as agonist, antagonistic activity. On the procedure:
(§6) The antagonistic activities of the compounds of formula (I) on the EP2 and EP4 receptors are also determined in accordance with the following experimental method.
(§7) Human tumor cell lines expressing endogenously either EP4 or EP2 are used and cAMP accumulation in cells upon PGE2 stimulation is monitored. SF295 glioblastoma cells express high endogenous EP2 and no EP4,whereas BT549 breast cancer cells, express high endogenous EP4 levels and very low EP2 levels.
(§8) As a detection method for cAMP the HTRF (homogeneous time resolved fluorescence) Cisbio kit (HTRF cAMP dynamic 2 kit 20′000 tests Cisbio Cat. #62AM4PEC) was used, which is based on a competitive immunoassay using a Cryptate-labeled anti-cAMP antibody and d2-labeled cAMP. Native cAMP produced by cells or unlabeled cAMP (for the standard curve) compete with exogenously added d2-labeled cAMP (acceptor) for binding to monoclonal anti-cAMP-Eu3+ Cryptate (donor). A FRET signal (Fluorescence Resonance Energy Transfer) is obtained only if the labeled anti-cAMP antibody binds the d2 labelled cAMP, thus the specific signal (i.e. energy transfer) is inversely proportional to the concentration of cAMP in the standard or sample.
The SF295 cells (NCl/No. 0503170) are detached from culture dishes with a cell dissociation buffer (Invitrogen, 13151-014), and collected in growing medium (GM: RPM11640 (Invitrogen 21875)/10% FCS, 1% Penicilin/streptomycin). Cells are counted washed and resuspended in assay buffer (AB; HBSS, 20 mM HEPES, 0.2% BSA; 2 mM IBMX). 4′000 cells in 5 μL of AB are seeded per well of a small volume 384 well plate (black with flat bottom, Greiner 784076).
Stock solutions of test compounds are made at a concentration of 10 mM in DMSO, and serially diluted in DMSO to concentrations required for inhibition dose response curves (tested concentration range 30 μM-0.4 nM; […] or 1 μM-0.01 nM).
PGE2 (Cayman 14010, stock solution: […] in DMSO) is used as agonist at 75 nM final concentration, corresponding to EC80.
2.5 μL of diluted compounds are transferred into the assay plate. […] Five I of each donor (anti-cAMP cryptate) and acceptor (cAMP-d2) are added and the plate is incubated another hour at room temperature in the dark and then read using a BMG LABTECH PHERAstar reader (Excitation: 337 nm, Emission: 620 and 665 nm).
(§9) The obtained Delta F (fluorescence) values (665 nm/620 nM) are converted into % cAMP values using the measurements of the cAMP calibrator provided in the kit. For each compound concentration the percentage of cAMP compared to DMSO control value as average ±STDEV (each concentration is measured in duplicate) is calculated.
as §5
(Cyclic AMP is a second messenger, typically raised through Gs and lowered through Gi signalling.)

Another assay deals with T3, PTRGER4 (EP4) (Homo sapiens, UniProt P35408).
T3 construct: host or cells: HEK 293 (PathHunter PTGER4 b-arrestin cell line)
Kind of assay: hEP4 b-arrestin assay (PathHunter HEK 293 PTGER4 b-arrestin cells). Conditions: PGE2 20 nM (EC80) as agonist, antagonistic activity, read-out: hEP4 beta-arrestin IC50. On the procedure:
as §1, §2
The HEK 293 PTGER4 b-arrestin cells (DiscoverX 93-030-4C1) are detached from culture dishes with a cell dissociation buffer (Invitrogen, 13151-014), and collected in growing medium (GM: DMEM+Glutamax-I (Invitrogen 32430)/10% FCS, 1% Penicilin/streptomycin). 5000 cells per well of a 384 well plate (white with white bottom Greiner 781080) are seeded in 20 μl per well of GM. Plate is incubated at 37° C., 5% CO2 for 24 hours.
as §3
PGE2 (Cayman 14010, stock solution: 100 uM in DMSO) is used as agonist at 20 nM final concentration, corresponding to EC80.
Five microliters of diluted compounds are transferred into the assay plate. Plate is pre-incubated 15 minutes at 37° C. Then five microliters of PGE2 (final conc. 20 nM) are transferred into the assay plate. Plate is incubated 120 minutes at 37° C.
PathHunter Glo Detection Kit components are thawed and mix according to manufacturers instructions: 1 part Galacton Star Substrate with 5 parts Emerald II™ Solution, and 19 parts of PathHunter Cell Assay Buffer, respectively. Twelve I of reagent are transferred to the assay plate and incubate for 1 hour at room temperature in the dark. Luminescence counts are read on a BMG Fluostar Optima reader according to manufacturers instructions.
as §4, §5

For the next assay, the target named is T4, EP4 (Homo sapiens, UniProt P35408).
T4 construct: BT549 breast cancer cells, express high endogenous EP4 levels and very low EP2 levels; endogenous in cells; host or cells: BT549 breast cancer cells (NCI No. 0507282)
Kind of assay: hEP4 cAMP assay (BT549 breast cancer cells, HTRF cAMP). Conditions: PGE2 6 nM (EC80) as agonist, antagonistic activity. Here is the method:
as §6, §7, §8
The BT549 cells (NCl/No. 0507282) are detached from culture dishes with a cell dissociation buffer (Invitrogen, 13151-014), and collected in growing medium (GM: RPM11640 (Invitrogen 21875)/10% FCS, 1% Penicilin/streptomycin). Cells are counted washed and resuspended in assay buffer (AB; HBSS, 20 mM HEPES, 0.2% BSA; 2 mM IBMX). 4′000 cells in 5 μL of AB are seeded per well of a small volume 384 well plate (black with flat bottom, Greiner 784076).
Stock solutions of test compounds are made at a concentration of 10 mM in DMSO, and serially diluted in DMSO to concentrations required for inhibition dose response curves (tested concentration range 30 μM-0.4 nM; 30 μM-0.015 nM or 1 μM-0.01 nM).
PGE2 (Cayman 14010, stock solution: 6 μM in DMSO) is used as agonist at 6 nM final concentration, corresponding to EC80.
2.5 μL of diluted compounds are transferred into the assay plate. […] Five μL of each donor (anti-cAMP cryptate) and acceptor (cAMP-d2) are added and the plate is incubated another hour at room temperature in the dark and then read using a BMG LABTECH PHERAstar reader (Excitation: 337 nm, Emission: 620 and 665 nm).
as §9, §5

T4 sequence (P35408 whole entry): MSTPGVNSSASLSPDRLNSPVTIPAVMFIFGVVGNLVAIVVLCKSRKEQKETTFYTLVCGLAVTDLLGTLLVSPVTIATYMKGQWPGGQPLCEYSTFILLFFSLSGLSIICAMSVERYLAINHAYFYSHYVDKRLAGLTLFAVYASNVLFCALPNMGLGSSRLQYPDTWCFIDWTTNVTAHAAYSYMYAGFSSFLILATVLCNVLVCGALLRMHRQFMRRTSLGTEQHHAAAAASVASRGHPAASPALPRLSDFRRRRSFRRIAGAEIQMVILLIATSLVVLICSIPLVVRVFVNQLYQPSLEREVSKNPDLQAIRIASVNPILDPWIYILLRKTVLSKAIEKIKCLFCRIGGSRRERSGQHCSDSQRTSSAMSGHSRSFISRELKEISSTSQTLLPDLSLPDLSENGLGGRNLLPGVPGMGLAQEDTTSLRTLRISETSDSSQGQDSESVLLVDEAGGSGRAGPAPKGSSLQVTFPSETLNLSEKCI
T3 sequence (P35408 whole entry): as above
T1 sequence (P43116 whole entry): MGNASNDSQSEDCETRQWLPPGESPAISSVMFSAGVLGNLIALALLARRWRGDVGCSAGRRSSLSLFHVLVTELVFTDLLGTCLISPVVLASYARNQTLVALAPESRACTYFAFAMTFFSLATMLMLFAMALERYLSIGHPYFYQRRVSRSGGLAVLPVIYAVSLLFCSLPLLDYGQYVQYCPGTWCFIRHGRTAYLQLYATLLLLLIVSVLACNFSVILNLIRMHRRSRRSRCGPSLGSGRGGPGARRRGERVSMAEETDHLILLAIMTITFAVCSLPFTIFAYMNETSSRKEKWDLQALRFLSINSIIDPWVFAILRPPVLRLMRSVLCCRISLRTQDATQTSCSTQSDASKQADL
T2 sequence (P43116 whole entry): as above

By IC50 is commonly meant the concentration at which inhibition is half-maximal. On to `Cc1cc2ccccc2n1CCNc1cc(-c2ccc(C(=O)O)cc2)ncn1` [Example 1, 4-{6-[2-(2-Methyl-indol-1-yl)-ethylamino]-pyrimidin-4-yl}-benzoic acid], for which the IC50 at PTGER2 (EP2) came out at 13 nM; on EP2, 15 nM; at PTRGER4 (EP4), 5970 nM; at EP4 it was 5720 nM.

With `N#Cc1cc2ccccc2n1CCNc1cc(-c2ccc(C(=O)O)cc2)ncn1` [Example 2, 4-{6-[2-(2-Cyano-indol-1-yl)-ethylamino]-pyrimidin-4-yl}-benzoic acid], the IC50 stood at 11 nM at PTGER2 (EP2), 10 nM at EP2, 2060 nM on PTRGER4 (EP4) and 1350 nM on EP4.

On to `Cc1cccc2cc(C)n(CCNc3cc(-c4ccc(C(=O)O)cc4)ncn3)c12` [Example 3, 4-{6-[2-(2,7-Dimethyl-indol-1-yl)-ethylamino]-pyrimidin-4-yl}-benzoic acid], for which the IC50 at PTGER2 (EP2) stood at 8 nM; at EP2 it was 5 nM; on PTRGER4 (EP4), 11000 nM; at EP4 it was 5660 nM.

Take `O=C(O)c1ccc(-c2cc(NCCn3c(Cl)cc4ccccc43)ncn2)cc1` [Example 4, 4-{6-[2-(2-Chloro-indol-1-yl)-ethylamino]-pyrimidin-4-yl}-benzoic acid]: the concentration for half-maximal inhibition (IC50) stood at 3 nM at PTGER2 (EP2), 2 nM at EP2, 2960 nM at PTRGER4 (EP4) and 2610 nM at EP4.

For `O=C(O)c1ccc(-c2cc(NCCn3c(Br)cc4ccccc43)ncn2)cc1` [Example 5, 4-{6-[2-(2-Bromo-indol-1-yl)-ethylamino]-pyrimidin-4-yl}-benzoic acid], the IC50 is 17 nM at PTGER2 (EP2) and 4970 nM on PTRGER4 (EP4).
